Columns and labels:
[1] = tested on: MK-801-induced hyperactivity; assay: MK-801-induced hyperactivity; assay type: in vivo, Albino Swiss mice; details: 30 min prior to MK-801 (0.35 mg/kg, i.p.), mice
Description: The locomotor activity was recorded individually for each animal in OPTO-M3 locomotor activity cages (Columbus Instrument) linked online to a compatible PC activity, as described previously by [Woźniak et al., 2016b]. Each cage (13 cm × 23 cm × 15 cm) was surrounded with an array of photocell beams. […] The locomotor activity was measured for 60 min immediately after MK-801 administration.

Cytochrome P450 2C19 = Cytochrome P450 2C19 (Homo sapiens, UniProt P33261); assay: Cytochrome P450 inhibition, 2C19; assay type: in vitro ADME
Cytochrome P450 2C19, sequence (P33261 whole entry): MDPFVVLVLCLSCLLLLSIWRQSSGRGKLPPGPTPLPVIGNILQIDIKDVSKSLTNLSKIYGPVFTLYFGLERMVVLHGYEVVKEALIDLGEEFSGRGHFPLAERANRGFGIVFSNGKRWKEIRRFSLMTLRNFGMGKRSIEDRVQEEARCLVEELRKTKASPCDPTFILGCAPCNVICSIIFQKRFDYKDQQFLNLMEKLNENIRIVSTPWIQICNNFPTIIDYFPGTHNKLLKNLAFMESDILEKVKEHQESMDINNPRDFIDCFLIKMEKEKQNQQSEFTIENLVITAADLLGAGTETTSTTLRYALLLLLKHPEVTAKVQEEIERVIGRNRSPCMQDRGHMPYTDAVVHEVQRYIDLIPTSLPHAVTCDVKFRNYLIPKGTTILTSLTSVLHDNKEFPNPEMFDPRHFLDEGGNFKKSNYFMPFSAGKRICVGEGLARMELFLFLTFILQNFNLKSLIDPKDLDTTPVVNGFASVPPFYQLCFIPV

[2] = tested on: DOI-induced head twitches; assay: DOI-induced head twitches; assay type: in vivo, Albino Swiss mice; details: mice; for Effect on DOI-induced head twitches, acute: 30 min before DOI (2.5 mg/kg)
Description: The experiment was performed according to previously described procedure ([Wierońska et al., 2012], [2013]). Immediately after a 30 min acclimatization period, DOI (2.5 mg/kg, i.p.) was administered in order to induce head twitches. The number of head twitches was then counted for 20 min. […]

rotarod performance = assay: Rotarod test (motor coordination); assay type: in vivo, Albino Swiss mice; details: 5, 15, and 30 mg/kg i.p., 30 min before the test trial, mice
Description: The animals were trained for 3 consecutive days at the speed of 18 rpm, one session per day for 3 min. If a mice fell during the habituation period, it was placed back on the apparatus. On the following day, the test trial was performed. After the mice were placed on the apparatus (Mouse Rota-Rod NG, UGO BASILE S.R.L.) moving at the speed of 12 rpm, the accelerating mode was started (maximum speed – 24 rpm). The latency to fall was measured during 3-min test session.

[3] = Pharmacokinetic study, plasma concentration after i.p. injection; assay type: in vivo; details: Albino Swiss, ip, mouse, 10 mg/kg i.p.; for Tmax: 10 mg/kg
Description: (§1) The mice were then perfused with 0.1M PBS to remove remaining blood from the body, and the brains were taken out for the analysis. Blood was centrifuged at 2000 rpm for 10 min at 4°C, and the plasma was collected and frozen at -80°C for further analysis.
(§2) Plasma and tissue samples from all drug-treated animals were thawed at room temperature prior to use. Standard protocol of sample preparation: 200 μl acetonitrile was added to the eppendorfs with 50 μl of studied plasma samples or tissue homogenate. Samples were mixed for 5 min on a mixer at 25°C and 1400 rpm. Tubes were then centrifuged at 2000 × g for 15 min at 4°C. About 180 μl of each supernatant was transferred into a plate well. Finally, each sample was injected into the column.
(§3) In calibration curve – serial dilution method, plasma was spiked with standard at different concentration levels. Acetonitrile was added. Mixed, centrifuged supernatant was taken.
(§4) Plasma and tissue samples from all drug-treated animals at selected time points are analyzed using previously developed a non-validated liquid chromatography-tandem mass spectrometry (LC-MS)/MS method.
(§5) LC/MS analysis was carried on a Bruker amaZon SL mass spectrometer using positive/ negative ion ESI mode. Chromatographic separation was achieved on a Ascentis Express C18 column, (5 cm × 2.1 mm, […], Supelco Technologies) at room temperature with a thermostatted column oven. A gradient elution of eluents A [acetonitrile (LiChrosolv, Reag. Ph Eur) +0.1% formic acid (Sigma–Aldrich, 98–100%)] and B (water +0.1% formic acid) was used for separation. The flow rate was set at 1 ml/min. The injection volume was 20 μl, and the time of injection was 4 min.
(§6) An Ion trap mass spectrometer (Bruker amaZon SL) was equipped with an electrospray source, operating in the positive/negative ion mode. Data were collected and processes using Bruker Quant Analysis software. Quantification of analytes was performed in SIM mode.

Cytochrome P450 2D6 = Cytochrome P450 2D6 (Homo sapiens, UniProt P10635); assay: Cytochrome P450 inhibition, 2D6; assay type: in vitro ADME
Cytochrome P450 2D6, sequence (P10635 whole entry): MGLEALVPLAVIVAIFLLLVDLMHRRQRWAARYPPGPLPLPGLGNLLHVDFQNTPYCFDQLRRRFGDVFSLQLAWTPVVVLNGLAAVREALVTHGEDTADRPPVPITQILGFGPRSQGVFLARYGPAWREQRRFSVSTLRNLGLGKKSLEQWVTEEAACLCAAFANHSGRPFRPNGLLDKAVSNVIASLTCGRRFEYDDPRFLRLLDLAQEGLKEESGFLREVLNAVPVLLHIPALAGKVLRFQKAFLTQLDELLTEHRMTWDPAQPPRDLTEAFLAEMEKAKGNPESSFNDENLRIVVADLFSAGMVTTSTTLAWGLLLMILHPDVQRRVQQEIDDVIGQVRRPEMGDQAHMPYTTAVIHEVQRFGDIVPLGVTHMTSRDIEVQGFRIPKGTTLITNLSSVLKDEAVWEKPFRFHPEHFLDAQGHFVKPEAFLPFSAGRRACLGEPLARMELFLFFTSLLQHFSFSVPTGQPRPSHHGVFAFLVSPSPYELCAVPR

[4] = tested on: prepulse-induced inhibition of the acoustic startle response; assay: Prepulse inhibition of the acoustic startle response; assay type: in vivo, Wistar rats; details: rats; for Effect on MK-801-induced disruption of prepulse inhibition: 30 min prior to MK-801 (0.3 mg/kg)
Description: The procedure was performed according to [Czyrak et al., 2003]. On the day before the experiment, the animals were subjected to a single startle session consisting of two trials, each presented 20 times during the session. During the first trial, a 120 dB, 40 ms pulse was presented, and on the second trial this pulse was preceded by a 75 dB, 20 ms prepulse. On the day of the experiment, the animals were habituated to the background white noise (65 dB) for 5 min (which continued throughout the test), after that the startle session was carried out as described above. Startle response amplitude was defined as the difference between the maximum force detected during a recording window and the force measured immediately before the stimulus onset (the threshold was set at 10 g). For each animal, the amplitudes were averaged separately for each type of trial. The PPI was calculated as the difference between the amplitudes of the pulse (P) and the prepulse + pulse (PP+P), divided by the amplitude of the pulse alone [([P - (PP + P)]/P)×100].

[5] = Pharmacokinetic study, brain concentration after i.p. injection; assay type: in vivo, mouse (Albino Swiss); details: mouse; for AUC / Cmax / Tmax / half-life: Albino Swiss, ip, brain, 10 mg/kg i.p.
Description: as §1, §2, §3, §4, §5, §6

[6] = Metabolic stability (microsomes, mice); assay type: in vitro ADME; details: for microsomal CLint: mouse, liver microsomes

## CCc1nc2c(o1)CC(c1ccc(C)cc1C)CC2=O (centres unmarked) [ADX71743, 6-(2,4-Dimethylphenyl)-2-ethyl-6,7-dihydro-4(5H)-benzoxazolone]
[1]; 5 mg/kg i.p.
  Effect on MK-801-induced hyperactivity: decreased MK-801-induced hyperactivity in a statistically significant way
[1]; 15 mg/kg i.p.
  Effect on MK-801-induced hyperactivity: decreased MK-801-induced hyperactivity in a statistically significant way
Cytochrome P450 2C19
  IC50: 3.3 to 10 µM
[2]; 2.5 mg/kg
  Effect on DOI-induced head twitches, chronic (10 days) administration: statistical effect
[2]; 5 mg/kg
  Effect on DOI-induced head twitches, chronic (10 days) administration: statistical effect
Rotarod performance
  Motor impairments in the rotarod test (latency to fall): did not induce detectable motor impairments
[3]
  AUC: 1.9 µM·h
  Cmax: 3.73 µM
  half-life: 54 min
  Tmax: 15 min
Cytochrome P450 2D6
  IC50: > 10 µM
[4]; 2.5 mg/kg
  Effect on MK-801-induced disruption of prepulse inhibition: inhibited MK-801-induced disruption in PPI
[5]; 0,5 h after 10 mg/kg i.p.
  Concentration in brain: 2,09 μM
[5]; 0,25 h after 10 mg/kg i.p.
  Concentration in brain: 3,38 μM
[5]; 1 h after 10 mg/kg i.p.
  Concentration in brain: 0,79 μM
[5]; 2 h after 10 mg/kg i.p.
  Concentration in brain: 0,09 μM
[5]
  AUC: 2.27 µM·h
  Cmax: 3.38 µM
  Tmax: 15 min
  half-life: 20.4 min
[6]
  Metabolic stability (microsomes, mice): 0.01
  microsomal CLint: 500 µL/min/mg

## COc1ccc(-c2cc3onc(-c4ccncc4)c3c(=O)n2C)cc1 [MMPIP, 6-(4-Methoxyphenyl)-5-methyl-3-(4-pyridinyl)-isoxazolo(4,5-c)pyridin-4(5H)-one]
[1]; 15 mg/kg i.p.
  Effect on MK-801-induced hyperactivity: significant reversal of MK-801-induced effect
Cytochrome P450 2C19
  IC50: < 1.1 µM
[2]; 5 mg/kg i.p.
  Effect on DOI-induced head twitches, acute: significantly reduced DOI-induced head twitches
[2]; 5 mg/kg
  Effect on DOI-induced head twitches, chronic (10 days) administration: statistically significant effect
[2]; 10 mg/kg i.p.
  Effect on DOI-induced head twitches, acute: significantly reduced DOI-induced head twitches
[2]; 10 mg/kg
  Effect on DOI-induced head twitches, chronic (10 days) administration: statistically significant effect
[2]; 15 mg/kg i.p.
  Effect on DOI-induced head twitches, acute: significantly reduced DOI-induced head twitches
Rotarod performance
  Motor impairments in the rotarod test (latency to fall): did not induce detectable motor impairments
[3]
  AUC: 13.5 µM·h
  Cmax: 9.85 µM
  half-life: 69.6 min
  Tmax: 30 min
Cytochrome P450 2D6
  IC50: > 10 µM
[4]; 10 mg/kg given alone, effect not statistically significant
  Prepulse-induced inhibition of the acoustic startle response, drug given alone: 137 % of control
[4]; all doses (5, 10, and 15 mg/kg)
  Effect on MK-801-induced disruption of prepulse inhibition: not antagonized
[5]; 0,5 h after 10 mg/kg i.p.
  Concentration in brain: 5,42 μM
[5]; 0,25 h after 10 mg/kg i.p.
  Concentration in brain: 3,63 μM
[5]; 1 h after 10 mg/kg i.p.
  Concentration in brain: 2,44 μM
[5]; 2 h after 10 mg/kg i.p.
  Concentration in brain: 1,79 μM
[5]
  AUC: 8.98 µM·h
  Cmax: 5.42 µM
  Tmax: 30 min
  half-life: 105 min
[6]
  Metabolic stability (microsomes, mice): 49.78
  microsomal CLint: 38.7 µL/min/mg

From article PMC6158327, “Negative Allosteric Modulators of mGlu7 Receptor as Putative Antipsychotic Drugs” (Frontiers in Molecular Neuroscience, 2018)
